Measurements from patent US5656662A, “Synthesis of optically pure 4-alkenyl- or 4-alkanyl-2-hydroxytetronic acids” (The Ohio State University Research Foundation, priority 1995, dated 1997).

Columns and labels:
Format in all cases: cell-based
TNFα = TNFα production from purified human monocytes; set-up: key to EFFECT on TNFα: NE: No effect; INHIB: Inhibition; STIM: Stimulation; IC40: 40% Inhibitory Concentration; EC50: 50% Effective Concentration; TC: Tolerated Concentration; IA: Interferes with Assay
Protocol: This assay determines the effect of test compounds on the production of TNFα from purified human monocytes. Compounds are tested for their ability to downregulate the production of TNFα in activated monocytes, or upregulate secretion of TNFα in unstimulated monocytes. Test compounds are incubated for sixteen hours with purified human monocytes at four dilutions over a range of three log10 concentrations. Where appropriate, lipopolysaccharide (LPS) is used to stimulate the monocytes.
The level of TNFα in the resultant supernatants is quantitated in a solid phase Enzyme-linked Immunoassay (EIA) performed in a 96 well format. TNFα present in the samples is captured by a specific monoclonal antibody immobilized on the well, and detected with an anti-TNFα polyclonal antibody conjugated to horse radish peroxidase, followed by an appropriate substrate. The levels of TNFα are determined by interpolation of the resultant color change in the substrate from a standard curve. All supernatants are tested in duplicate with controls and standards.
This assay determines the effect of test compounds on the production of TNF from purified human monocytes. Compounds are tested for their ability to downregulate the production of TNFα in activated monocytes, or upregulate secretion of TNFα in unstimulated monocytes. Test compounds are incubated for sixteeen hours with purified human monocytes at four dilutions over a range of three log10 concentrations. Where appropriate, lipopolysaccharide (LPS) is used to stimulate the monocytes.

tissue factor (TF) = assay: Membrane bound tissue factor production from purified human monocytes; set-up: key to EFFECT on TISSUE FACTOR: NE: No effect; INHIB: Inhibition; STIM: Stimulation; IC40: 40% Inhibitory Concentration; EC50: 50% Effective Concentration; TC: Tolerated Concentration; IA: Interferes with Assay
Protocol: This assay determines the effect of test compounds on the production of membrane bound tissue factor (TF) from purified human monocytes. Compounds are tested for their ability to downregulate the production of TF in activated monocytes, or upregulate production of TF in unstimulated monocytes. Test compounds are incubated for sixteen hours with purified human monocytes at four dilutions over a range of three log10 concentrations. Where appropriate, lipopolysaccharide (LPS) is used to stimulate the monocytes.
After the above period of incubation, medium is aspirated from the monocytes, and the cells are solubilized in Triton-X 100. The level of TF in the soluble fraction is quantitated in a solid phase Enzyme-linked Immunoassay (EIA) performed in a 96 well format. TF present in the samples is captured by a specific monoclonal antibody immobilized on the well, and detected using a biotinylated antibody fragment specific for bound TF, followed by streptavidin conjugated to horseradish peroxidase and an appropriate substrate. The levels of TF are determined by interpolation of the resultant color change in the substrate from a standard curve. All supernatants are tested in duplicate with controls and standards.

purified human monocytes = assay: Chemotactic response of purified human monocytes; set-up: key: NE: No effect; INHIB: Inhibition; STIM: Stimulation; IC40: 40% Inhibitory Concentration; EC50: 50% Effective Concentration; TC: Tolerated Concentration; IA: Interferes with Assay; conditions: STIMULATED
Protocol: This assay measures the ability of test compounds to modulate the chemotactic response of purified human monocytes in response to a chemoattractant. Compounds are tested at four dilutions over a range of three log10 concentrations. The test compounds are combined with monocytes labeled with a fluorescent indicator and placed in the top wells of a chemotaxis chamber, above an optimized concentration of a monocyte chemoattractant placed in the wells below, and separated by a microporous filter. After sixty minutes, the migration of cells through the filter is quantified flurorometrically, and expressed in relation to spontaneous and maximum controls. All tests are carried out in triplicate.

PAF = PAF production by purified human monocytes; set-up: key: NE: No effect; INHIB: Inhibition; STIM: Stimulation; IC40: 40% Inhibitory Concentration; EC50: 50% Effective Concentration; TC: Tolerated Concentration; IA: Interferes with Assay
Protocol: This assay measures the ability of test compounds to modulate the amount of PAF produced by purified human monocytes. Compounds are tested for their ability to downregulate the secretion of PAF from activated monocytes, or upregulate secretion of PAF from unstimulated monocytes. Test compounds are incubated for ninety minutes with purified human monocytes ar four dilutions over a range of three log10 concentrations. Where appropriate, zymosan is used to stimulate the monocytes.
The level of PAF in the resultant supernatants is quantitated by immunoassay performed in a 96 well format. PAF levels modulated by unknown compounds are determined by interpolation from a standard curve. All compounds are tested in duplicate with controls and standards.
This assay measures the ability of test compounds to modulate the amount of PAF produced by purified, human monocytes. Compounds are tested for their ability to downregulate the secretion of PAF from activated monocytes, or upregulate secretion of PAF from unstimulated monocytes. Test compounds are incubated for ninety minutes with purified human monocytes ar four dilutions over a range of three log10 concentrations. Where appropriate, zymosan is used to stimulate the monocytes.

PGE2 = PGE2 production by purified human monocytes; set-up: key to EFFECT on PGE2: NE: No effect; INHIB: Inhibition; STIM: Stimulation; IC40: 40% Inhibitory Concentration; EC50: 50% Effective Concentration; TC: Tolerated Concentration; IA: Interferes with Assay
Protocol: This procedure measures the ability of test compounds to modulate the amount of PGE2 produced by purified human monocytes. Compounds are tested for their ability to downregulate the secretion of PGE2 from activated monocytes, or upregulate secretion of PGE2 from unstimulated monocytes. Test compounds are incubated for ninety minutes with purified human monocytes at four dilutions over a range of three log10 concentrations. Where appropriate, zymosan is used to stimulate the monocytes.
The level of PGE2 in the resultant supernatants is quantitated by immunoassay performed in a 96 well format. PGE2 levels modulated by unknown compounds are determined by interpolation from a standard curve. All compounds are tested in duplicate with controls and standards.

[1] = Homo sapiens, Monocyte, STIMULATED, STIM

SMILES: CCCCCCCCCCCCCC/C=C\CC[C@@H]1OC(=O)C(O)=C1O [(S)-3,4-Dihydroxy-5-[(Z)-3-octadecenyl]-2(5H)-furanone]
- EC50 (TNFα; [1]): 38 µM
- EFFECT on TNFα (TNFα; STIMULATED): STIM
- EFFECT on TNFα (TNFα; UNSTIMULATED): NE
- EC50 (tissue factor (TF); [1]): 35 µM
- EFFECT on TISSUE FACTOR (tissue factor (TF); STIMULATED): STIM
- EFFECT on TISSUE FACTOR (tissue factor (TF); UNSTIMULATED): NE
- EFFECT on CHEMOTAXIS (purified human monocytes): NE
- EFFECT on PAF (PAF; STIMULATED): NE
- EFFECT on PAF (PAF; UNSTIMULATED): NE
- EC50 (PGE2; Homo sapiens, Monocyte, STIMULATED, INHIB): 2 µM
- EFFECT on PGE2 (PGE2; STIMULATED): INHIB
- EFFECT on PGE2 (PGE2; UNSTIMULATED): NE
